Measurements published in ChEMBL document CHEMBL5030526, “Synthesis and Preclinical Validation of Novel Indole Derivatives as a GPR17 Agonist for Glioblastoma Treatment” (J Med Chem, 2021).
The source made the active and inactive calls. The calls are words filed in the database; no cut-off is given here.

Assays:
SNB-19 [1] = assay: Cytotoxicity effect against human SNB-19 cells assessed as cell growth inhibition incubated for 48 hrs by trypan blue exclusion assay; type: functional, cell-based; conditions: SNB-19, 48 h
LN-229 [2] = assay: Cytotoxicity effect against human LN-229 cells assessed as cell growth inhibition incubated for 48 hrs by trypan blue exclusion assay; type: functional, cell-based; conditions: LN-229, 48 h
[3] = biological target: T1, Uracil nucleotide/cysteinyl leukotriene receptor (Homo sapiens, UniProt Q13304); assay: Agonist activity at human GPR17 in human LN-229 cells assessed as decrease in calcium ion levels incubated for 2 hrs by Calcium Fura 2 Dynamic assay
T1 sequence (Q13304 whole entry): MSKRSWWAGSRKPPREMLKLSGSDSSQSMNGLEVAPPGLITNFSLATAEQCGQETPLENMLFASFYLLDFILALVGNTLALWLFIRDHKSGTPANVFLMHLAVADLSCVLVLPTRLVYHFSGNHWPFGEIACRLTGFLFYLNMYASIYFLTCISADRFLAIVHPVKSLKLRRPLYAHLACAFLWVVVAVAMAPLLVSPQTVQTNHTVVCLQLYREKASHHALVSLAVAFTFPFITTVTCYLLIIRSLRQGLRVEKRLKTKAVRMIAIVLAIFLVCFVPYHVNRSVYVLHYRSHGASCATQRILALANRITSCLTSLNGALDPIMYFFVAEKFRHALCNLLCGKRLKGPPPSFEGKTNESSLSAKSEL

[4] = biological target: T1, Uracil nucleotide/cysteinyl leukotriene receptor; assay: Agonist activity at human GPR17 in human LN-229 cells assessed as decrease in intracellular cAMP levels incubated for 2 hrs by cAMP Glo Dynamic assay
SNB-19 [5] = assay: Cytotoxicity against human SNB-19 cells assessed as cell growth inhibition at 100 uM incubated for 48 hrs by trypan blue exclusion assay; type: functional; conditions: read-out: GI
LN-229 [6] = assay: Cytotoxicity against human LN-229 cells assessed as increase in cell death at 100 uM incubated for 48 hrs by trypan blue exclusion assay; type: functional, cell-based
LN-229 [7] = assay: Cytotoxicity against human LN229 cells assessed as cell growth inhibition at 100 uM incubated for 48 hrs by trypan blue exclusion assay; type: functional; conditions: read-out: GI
[8] = biological target: T1, Uracil nucleotide/cysteinyl leukotriene receptor; assay: Agonist activity at human GPR17 in human SNB-19 cells assessed as decrease in calcium ion levels incubated for 2 hrs by Calcium Fura 2 Dynamic assay
[9] = Cytotoxicity against mouse MEF cells assessed as cell growth inhibition at 100 uM incubated for 48 hrs by trypan blue exclusion assay; type: cell-based
[10] = biological target: T1, Uracil nucleotide/cysteinyl leukotriene receptor; assay: Inverse agonist at human GPR17 in human SNB-19 cells assessed as intracellular cAMP levels incubated for 2 hrs by cAMP Glo Dynamic assay
[11] = biological target: T1, Uracil nucleotide/cysteinyl leukotriene receptor; assay: Inverse agonist at human GPR17 in human LN-229 cells assessed as intracellular cAMP levels incubated for 2 hrs by cAMP Glo Dynamic assay

SMILES | IC50 (SNB-19 [1]) [µM] | IC50 (LN-229 [2]) [µM] | EC50 [3] [µM] | EC50 [4] [µM] | inhibition of growth at 100 µM (SNB-19 [5]) [%] | Activity (LN-229 [6]) | inhibition of growth at 100 µM (LN-229 [7]) [%] | EC50 [8] [µM] | inhibition at 48 h, 100 µM [9] [%] | EC50 [10] [µM] | EC50 [11] [µM]
Cn1nnc2c(C(N)=O)ncn2c1=O [TEMOZOLOMIDE] | 69.9 | 67.8 | – | – | – | – | – | – | – | – | –
O=C(Nc1ccccc1)Oc1cc(OC(=O)Nc2ccccc2)c2c(c1)N(C(c1ccc(F)cc1)c1cccc(Cl)c1O)CC2 (stereo not given) | 85.5 | 85.3 | 41.9 | 59.6 | 37 | Active | 50 | 7.67 | < 5 | – | –
O=C(O)CCC1=C(C(=O)O)Cc2cc(Cl)cc(Cl)c21 | – | – | 26.9 | – | – | – | – | 26.3 | – | 17.7 | 16.6
